Source: US12570666B2, “Furoindazole derivatives” (Bayer Aktiengesellschaft, priority 2019, dated 2026)

Molecular target: T1, human GPR84 receptor (Homo sapiens, UniProt Q9NQS5)
T1 construct: frozen aliquots prepared by acCELLerate; host or cells: CHO-K1
Assay: cAMP HTRF assay for identification of cellular GPR84 antagonists
Type: cell-based
Conditions: CHO-K1 cells stably expressing human GPR84; Forskolin + agonist 6-OAU (EC80); average or median values
Outline: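 IC50 came from 4-parameter fits over 20 μM–0.07 nM (11 points, duplicate), normalized between DMSO (0%) and agonist-free (100% inhibition) wells. Readout: cAMP-d2/Eu-cryptate HTRF in hGPR84 CHO-K1 cells given forskolin plus agonist, compound preincubated 30 min at room temperature.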

T1 sequence (Q9NQS5 whole entry): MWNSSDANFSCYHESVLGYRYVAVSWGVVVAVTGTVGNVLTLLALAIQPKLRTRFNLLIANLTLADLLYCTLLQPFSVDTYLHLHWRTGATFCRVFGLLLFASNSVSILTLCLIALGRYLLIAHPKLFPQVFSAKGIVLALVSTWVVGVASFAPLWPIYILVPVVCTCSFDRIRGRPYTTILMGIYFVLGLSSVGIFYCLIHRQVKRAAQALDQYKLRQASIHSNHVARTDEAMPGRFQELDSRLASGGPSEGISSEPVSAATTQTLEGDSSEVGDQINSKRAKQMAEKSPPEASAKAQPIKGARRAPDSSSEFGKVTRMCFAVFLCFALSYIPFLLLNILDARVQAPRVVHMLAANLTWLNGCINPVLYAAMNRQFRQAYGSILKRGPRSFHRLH

Structure (SMILES)	IC50 [µM]
Cc1c(C(=O)NC[C@H]2COCCO2)oc2c1-c1nn(Cc3ccccn3)cc1CC2 [Example 19-2, N-{[(2S)-1,4-dioxan-2-yl]methyl}-8-methyl-2-[(pyridin-2-yl)methyl]-4,5-dihydro-2H-furo[2,3-g]indazole-7-carboxamide]	0.83
Cc1cc(Cn2cc3c(n2)-c2c(oc(C(=O)NC[C@@H]4CCCO4)c2C)CC3)cc(C)n1 [Example 81, 2-[(2,6-dimethylpyridin-4-yl)methyl]-8-methyl-N-[(2S)-tetrahydrofuran-2-ylmethyl]-4,5-dihydro-2H-furo[2,3-g]indazole-7-carboxamide]	0.38
Cc1c(C(=O)NCc2cc(C3CC3)on2)oc2c1-c1nn(CC3COc4ncccc4O3)cc1CC2 (single isomer, unassigned) [Example 50-2]	0.017
Cc1c(C(=O)NC[C@@H]2CCCO2)oc2c1-c1nn(Cc3ccc(C(=O)NC[C@@H]4CCCO4)nc3)cc1CC2 [Example 146, 8-methyl-N-[(2S)-tetrahydrofuran-2-ylmethyl]-2-[(6-{[(2S)-tetrahydrofuran-2-ylmethyl]carbamoyl}pyridin-3-yl)methyl]-4,5-dihydro-2H-furo[2,3-g]indazole-7-carboxamide]	0.047
Cc1c(C(=O)NC[C@@H]2CCCO2)oc2c1-c1nn(Cc3ccncc3)cc1CC2 [Example 46, 8-methyl-2-(pyridin-4-ylmethyl)-N-[(2S)-tetrahydrofuran-2-ylmethyl]-4,5-dihydro-2H-furo[2,3-g]indazole-7-carboxamide]	0.013
Cc1c(C(=O)NC[C@@H]2COCCO2)oc2c1-c1nn(CC3(C)COC3)cc1CC2 [Example 94, N-[(2R)-1,4-dioxan-2-ylmethyl]-8-methyl-2-[(3-methyloxetan-3-yl)methyl]-4,5-dihydro-2H-furo[2,3-g]indazole-7-carboxamide]	0.021
Cc1c(C(=O)NCc2cc(C3CC3)on2)oc2c1-c1nn(CC3COc4ncccc4O3)cc1CC2 (racemic) [Example 50, N-[(5-cyclopropyl-1,2-oxazol-3-yl)methyl]-2-[(2R/S)-2,3-dihydro[1,4]dioxino[2,3-b]pyridin-2-ylmethyl]-8-methyl-4,5-dihydro-2H-furo[2,3-g]indazole-7-carboxamide]	0.035
Cc1c(C(=O)NC[C@@H]2COCCO2)oc2c1-c1nn(Cc3ccccn3)cc1C1(CCC1)C2 [Example 134]	0.043
Cc1c(C(=O)NC[C@@H]2CCCO2)oc2c1-c1nn(C[C@H]3COCCO3)cc1C1(CC1)C2 [Example 125, 2′-[(2S)-1,4-dioxan-2-ylmethyl]-8′-methyl-N-[(2S)-tetrahydrofuran-2-ylmethyl]-2′,5′-dihydrospiro[cyclopropane-1,4′-furo[2,3-g]indazole]-7′-carboxamide]	0.051
Cc1c(C(=O)NC[C@@H]2CCCO2)oc2c1-c1nn(Cc3cccc(C(F)(F)F)n3)cc1CC2 [Example 56, 8-methyl-N-[(2S)-tetrahydrofuran-2-ylmethyl]-2-{[6-(trifluoromethyl)pyridin-2-yl]methyl}-4,5-dihydro-2H-furo[2,3-g]indazole-7-carboxamide]	0.092
O=C(NC[C@@H]1CCCO1)c1oc2c(c1C(F)(F)F)-c1nn(Cc3ccccn3)cc1CC2 [Example 115, 2-(pyridin-2-ylmethyl)-N-[(2S)-tetrahydrofuran-2-ylmethyl]-8-(trifluoromethyl)-4,5-dihydro-2H-furo[2,3-g]indazole-7-carboxamide]	0.027
Cc1c(C(=O)NC[C@@H]2COCCO2)oc2c1-c1nn(C[C@@H]3CN(C)CCO3)cc1CC2 [Example 104, N[(2R)-1,4-dioxan-2-ylmethyl]-8-methyl-2-{[(2S)-4-methylmorpholin-2-yl]methyl}-4,5-dihydro-2H-furo[2,3-g]indazole-7-carboxamide]	0.18
Cc1cc(Cn2cc3c(n2)-c2c(oc(C(=O)NC[C@@H]4COCCO4)c2C)CC3)ccn1 [Example 80, N-[(2R)-1,4-dioxan-2ylmethyl]-8-methyl-2-[(2-methylpyridin-4-yl)methyl]-4,5-dihydro-2H-furo[2,3-g]indazole-7-carboxamide]	0.057
Cc1cc(CNC(=O)c2oc3c(c2C)-c2nn(Cc4ccccn4)cc2CC3)no1 [Example 8, 8-methyl-N-[(5-methyl-1,2-oxazol-3-yl)methyl]-2-(pyridin-2-ylmethyl)-4,5-dihydro-2H-furo[2,3-g]indazole-7-carboxamide]	0.21
Cc1c(C(=O)NCCN2CCN(C)CC2)oc2c1-c1nn(CC3COc4ncccc4O3)cc1CC2 (racemic) [Example 54, 2-[(2R/S)-2,3-dihydro[1,4]dioxino[2,3-b]pyridin-2-ylmethyl]-8-methyl-N-[2-(4-methylpiperazin-1-yl)ethyl]-4,5-dihydro-2H-furo[2,3-g]indazole-7-carboxamide]	0.55
CC(=O)N1CC(Cn2cc3c(n2)-c2c(oc(C(=O)NC[C@@H]4CCCO4)c2C)CC3)C1 [Example 164, 2-[(1-acetylazetidin-3-yl)methyl]-8-methyl-N-[(2S)-tetrahydrofuran-2-ylmethyl]-4,5-dihydro-2H-furo[2,3-g]indazole-7-carboxamide]	0.98
Cc1c(C(=O)NC[C@@H]2CCCO2)oc2c1-c1nn(C[C@@H]3CCOC3)cc1CC2 [Example 113, 8-methyl-N-[(2S)-tetrahydrofuran-2-ylmethyl]-2-[(3S)-tetrahydrofuran-3-ylmethyl]-4,5-dihydro-2H-furo[2,3-g]indazole-7-carboxamide]	0.091
Cc1cccc(Cn2cc3c(n2)-c2c(oc(C(=O)NCC4CCCO4)c2C)CC3)n1 (racemic) [Example 66, 8-methyl-2-[(6-methylpyridin-2-yl)methyl]-N-[(2R/S)-tetrahydrofuran-2-ylmethyl]-4,5-dihydro-2H-furo[2,3-g]indazole-7-carboxamide]	0.16
Cc1c(C(=O)NC[C@@H]2COCCO2)oc2c1-c1nn(CCN)cc1CC2 [Example 161, 2-(2-aminoethyl)-N-[(2R)-1,4-dioxan-2-ylmethyl]-8-methyl-4,5-dihydro-2H-furo[2,3-g]indazole-7-carboxamide]	6.52

Results, then the molecule that gave them:

IC50 [µM]	Structure (SMILES)
0.013	C[C@@H]1Cc2oc(C(=O)NCc3ncccn3)c(C(F)(F)F)c2-c2nn(C[C@H]3COCCO3)cc21 (single isomer, unassigned) [Example 304]
0.003	O=C(NCc1cnc(C2CC2)cn1)c1oc2c(c1C(F)(F)F)-c1nn(C[C@H]3COCCO3)cc1CC2 [Example 321, N-[(5-cyclopropylpyrazin-2-yl)methyl]-2-{[(2S)-1,4-dioxan-2-yl]methyl}-8-(trifluoromethyl)-4,5-dihydro-2H-furo[2,3-g]indazole-7-carboxamide]
0.195	C[C@@H]1Cc2oc(C(=O)NCc3cnc(C(F)(F)F)nc3)c(C(F)(F)F)c2-c2nn(C[C@H]3COCCO3)cc21 (single isomer, unassigned) [Example 262, (4R or 4S)-2-{[(2S)-1,4-dioxan-2-yl]methyl}-4-methyl-8-(trifluoromethyl)-N-{[2-(trifluoromethyl)pyrimidin-5-yl]methyl}-4,5-dihydro-2H-furo[2,3-g]indazole-7-carboxamide]
6.41	Cc1c(C(=O)NCC2OCCC2(C)C)oc2c1-c1nn(Cc3ccccn3)cc1CC2 (racemic) [Example 179]
1.51	Cc1ncc(CNC(=O)c2oc3c(c2C(F)(F)F)-c2nn(C[C@H]4COCCO4)cc2[C@H](C)C3)cn1 (single isomer, unassigned) [Example 302, (4R or 4S)-2-{[(2S)-1,4-dioxan-2-yl]methyl}-4-methyl-N-[(2-methylpyrimidin-5-yl)methyl]-8-(trifluoromethyl)-4,5-dihydro-2H-furo[2,3-g]indazole-7-carboxamide]
0.008	Cc1ccc(Cn2cc3c(n2)-c2c(oc(C(=O)NC[C@@H]4CCCO4)c2C(F)(F)F)CC32CCC2)nc1 [Example 277, 2′-[(5-Methylpyridin-2-yl)methyl]-N-[(2S)-tetrahydrofuran-2-ylmethyl]-8′-(trifluormethyl)-2′,5′-dihydrospiro[cyclobutan-1,4′-furo[2,3-g]indazol]-7′-carboxamide]
0.801	Cc1c(C(=O)NC[C@@H]2CCCO2)oc2c1-c1nn(C(C)(C)c3cccnc3)cc1CC2 [Example 289, 8-methyl-N-{[(2S)-oxolan-2-yl]methyl}-2-[2-(pyridin-3-yl)propan-2-yl]-4,5-dihydro-2H-furo[2,3-g]indazole-7-carboxamide]
0.017	CC1Cc2oc(C(=O)NC[C@@H]3COCCO3)c(C(F)(F)F)c2-c2nn(Cc3ccccn3)cc21 (mixture of isomers) [Example 250, (4±)-N-{[(2R)-1,4-dioxan-2-yl]methyl}-4-methyl-2-[(pyridin-2-yl)methyl]-8-(trifluoromethyl)-4,5-dihydro-2H-furo[2,3-g]indazole-7-carboxamide]
0.223	Cc1c(C(=O)NC[C@@H]2CCCO2)oc2c1-c1nn(Cc3ncco3)cc1CC2 [Example 188]
0.006	CC(=O)N1CCC(Cn2cc3c(n2)-c2c(oc(C(=O)NC[C@@H]4CCCO4)c2C(F)(F)F)C[C@H]3C)CC1 (single isomer, unassigned) [Example 292, (4R or 4S)-2-[(1-acetylpiperidin-4-yl)methyl]-4-methyl-N-{[(2S)-oxolan-2-yl]methyl}-8-(trifluoromethyl)-4,5-dihydro-2H-furo[2,3-g]indazole-7-carboxamide]
0.061	O=C(NC[C@@H]1CCCO1)c1oc2c(c1C(F)F)-c1nn(C[C@H]3COCCO3)cc1CC2 [Example 245, 8-(difluoromethyl)-2-{[(2S)-1,4-dioxan-2-yl]methyl}-N-{[(2S)-oxolan-2-yl]methyl}-4,5-dihydro-2H-furo[2,3-g]indazole-7-carboxamide]
0.182	Cc1c(C(=O)NCC2COCC(C)(C)O2)oc2c1-c1nn(C[C@H]3COCCO3)cc1C1(CC1)C2 (mixture of isomers) [Example 196]
